According to PMC7076710, “Synthesis, Identification, and Structure–Activity Relationship Analysis of GATA4 and NKX2-5 Protein–Protein Interaction Modulators” (Journal of Medicinal Chemistry, 2019):

Biological target: T1, GATA4–NKX2-5 transcriptional synergy (Mus musculus, UniProt P42582+Q08369)
T1 construct: expressed in transfected cells; host or cells: COS-1
Assay: GATA4–NKX2-5 transcriptional synergy luciferase reporter assay (3xNKE reporter, COS-1 cells)
Assay type: cell-based
Experimental: To screen compounds for the GATA4–NKX2-5 interaction, we have developed a luciferase reporter assay based on their property to activate gene transcription synergistically through the NKX2-5 binding site on DNA.[28] In this assay, we transfected mammalian COS-1 cells with protein expression vectors for GATA4 and NKX2-5 proteins together with artificial luciferase reporter vector containing three high affinity binding sites for NKX2-5 (NKE). […] All 257 compounds were tested in two concentrations, 3 and 10 μM. Compounds either inhibited, enhanced, or had no effect on the GATA4–NKX2-5 transcriptional synergy. To investigate the selectivity of the active compounds, we tested their effects on NKX2-5 transcriptional activity by using the same luciferase reporter vector as in transcriptional synergy assay with three NKE sites (Figure 3B). Furthermore, we used GATA luciferase reporter assay to examine if compounds have an effect on GATA4 transcriptional activity. In this assay, we cotransfected the cells with a GATA4 protein expression vector and a reporter vector with tandem GATA4 binding sites (Figure 3C). Previously we have reported that compound 1 inhibited the GATA4–NKX2-5 transcriptional synergy at micromolar concentrations (IC50 = 3 μM).[29]
The plasmids expressing mouse GATA4 protein, pMT2-GATA4, and empty pMT2 were gifts from D. B. Wilson (Department of Pediatrics, St. Louis Children’s Hospital, St. Louis, MO).[44] The plasmids expressing mouse NKX2-5 protein, pMT2-NKX2-5, have been described earlier.[28] The luciferase reporter plasmid used in GATA4–NKX2-5 transcriptional synergy assay and NKX transcriptional assay, pGL3-3xHA, contains three high affinity binding sites for NKX2-5.[28] The luciferase reporter plasmid used in GATA transcriptional assay, NP-112, contains tandem GATA-sites and minimal promoter of rat brain natriuretic peptide (BNP) gene.[45] The pGL3-BNP luciferase reporter containing −534/+4 bp rat BNP proximal promoter described previously was used in hypertrophy assay.[46]
The primary screening assay of compounds’ effect on GATA4–NKX2-5 transcriptional synergy and COS-1 cell culturing has been described earlier.[33] […] (Kinnunen et al., unpublished observation). Briefly, COS-1 cells were seeded at 14 000 cells/well in Isoplate-96 microplates (PerkinElmer, Turku, Finland) and grown overnight. The cells were transfected with the luciferase reporter plasmid pGL3-3xHA 100 ng/well and equal amounts of expression plasmids pMT2-GATA4 and pMT2-NKX2-5 total 50 ng/well. To verify the synergistic effect, the cells were transfected with pMT2-GATA4 or pMT2-NKX2-5 25 ng/well, and the total DNA concentration was adjusted to 50 ng/well with empty pMT2 plasmid. In NKX2-5 and GATA4 luciferase reporter assays, the cells were transfected with reporter plasmid pGL3-3xHA or NP-112 (100 ng/well) and expression plasmid pMT2-NKX2-5 or pMT2-GATA4 (25 ng/well). The ratio of DNA/transfection reagent (Fugene 6, Promega) was 1:3 in all assays. The transfections were performed in serum and antibiotics free media for 6 h. The cells were treated with compounds or vehicle (0.1% DMSO) for 24 h, and the luminescence was measured using neolite Reporter Gene Assay System (PerkinElmer, Turku, Finland) and Victor2 plate reader (PerkinElmer, Turku, Finland).
Raw luciferase data were analyzed in Excel, and clear outliers were removed from triplicates by using the Grubb’s test. Data analysis was performed using R.[49] The luciferase data were first normalized on the basis of the combined mean value of controls. For data visualization and creation of figures, the following R packages were used: ggplot2, cowplot, RColorBrewer, and pheatmap. The heatmaps of the toxicity data were produced with GraphPad Prism 7.00 (GraphPad Software, La Jolla, CA). Statistical significance of luciferase reporter assay data was evaluated by randomized block analysis of variance followed by Dunnett’s post hoc test. […]

[1] = COS-1, compound at 3 µM, luciferase reporter activity, % of control
[2] = COS-1, compound at 10 µM, luciferase reporter activity, % of control
[3] = COS-1, 3 µM, luciferase reporter activity, % of control
[4] = COS-1, 10 µM, luciferase reporter activity, % of control
[5] = 3 µM compound, GATA4–NKX2-5 transcriptional synergy reporter, COS-1 cells
[6] = 10 µM compound, GATA4–NKX2-5 transcriptional synergy reporter, COS-1 cells
[7] = COS-1, compound 3 µM, luciferase reporter activity relative to control
[8] = COS-1, compound 10 µM, luciferase reporter activity relative to control

T1 sequence (Q08369 whole entry): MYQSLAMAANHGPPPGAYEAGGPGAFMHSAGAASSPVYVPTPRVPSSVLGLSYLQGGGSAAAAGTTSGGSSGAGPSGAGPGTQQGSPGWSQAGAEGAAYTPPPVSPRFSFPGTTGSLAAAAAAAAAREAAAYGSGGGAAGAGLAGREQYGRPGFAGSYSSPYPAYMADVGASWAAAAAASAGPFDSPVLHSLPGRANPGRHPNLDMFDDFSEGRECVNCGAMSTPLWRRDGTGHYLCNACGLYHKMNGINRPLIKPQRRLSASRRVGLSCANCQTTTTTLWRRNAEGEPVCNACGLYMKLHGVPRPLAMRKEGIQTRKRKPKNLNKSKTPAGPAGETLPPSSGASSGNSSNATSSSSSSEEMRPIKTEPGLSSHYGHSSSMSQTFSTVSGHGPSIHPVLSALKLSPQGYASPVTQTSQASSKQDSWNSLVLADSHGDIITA
T1 sequence (P42582 whole entry): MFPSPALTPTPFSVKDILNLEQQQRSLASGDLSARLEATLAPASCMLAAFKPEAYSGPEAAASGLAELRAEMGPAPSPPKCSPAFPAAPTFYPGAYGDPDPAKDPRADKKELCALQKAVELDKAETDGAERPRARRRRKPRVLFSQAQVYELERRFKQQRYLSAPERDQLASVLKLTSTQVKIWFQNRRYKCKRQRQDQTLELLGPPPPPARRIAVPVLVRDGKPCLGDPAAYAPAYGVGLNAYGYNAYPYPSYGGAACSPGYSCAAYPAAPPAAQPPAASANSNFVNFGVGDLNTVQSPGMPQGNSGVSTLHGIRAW

Cc1onc(-c2ccccc2)c1C(=O)Nc1ccc2c(c1)nc(C)n2C(C)C [SI15]
activity at 3 µM [1]: 92.6%
activity at 10 µM [2]: 96%

Cc1onc(-c2ccccc2)c1C(=O)N1CCc2cc([N+](=O)[O-])ccc21 [SI16]
activity at 3 µM [3]: 99.5%
activity at 10 µM [4]: 91.3%

Cc1onc(-c2ccccc2)c1NC(=O)OC(C)(C)C [SI17]
activity at 3 µM [3]: 99.2%
activity at 10 µM [4]: 87.1%

CCN(CC)c1ccc(NCc2c(-c3c(Cl)cccc3Cl)noc2C)cc1 [SI18]
activity at 3 µM [5]: 102%
activity at 10 µM [6]: 92.8%

CCN(CC)c1ccc(NS(=O)(=O)c2c(C)noc2C)cc1 [SI19]
activity at 3 µM [3]: 91.6%
activity at 10 µM [4]: 79.1%

CCN(CC)c1ccc(/N=N/c2c(C)noc2C)cc1 [SI20]
activity at 3 µM [3]: 82.6%
activity at 10 µM [4]: 101%

CCN(CC)c1ccc(C(=O)Nc2c(C)noc2C)cc1 [SI21]
activity at 3 µM [3]: 113%
activity at 10 µM [4]: 97.4%

CCN(CC)c1ccc(C(=O)On2nnc3ccccc32)cc1 [SI22]
activity at 3 µM [3]: 80.4%
activity at 10 µM [4]: 114%

Cc1onc(-c2ccccc2)c1NC(=O)Nc1ccc(OC(F)(F)F)cc1 [SI23]
activity at 3 µM [1]: 109%
activity at 10 µM [2]: 68.7%

Cc1onc(-c2ccccc2)c1NC(=O)Nc1cccc(C(F)(F)F)c1 [SI24]
activity at 3 µM [3]: 109%
activity at 10 µM [4]: 86.5%

Cc1onc(-c2ccccc2)c1NC(=O)NC1CCCCC1 [SI25]
activity at 3 µM [1]: 91.2%
activity at 10 µM [2]: 118%

Cc1onc(-c2ccccc2)c1NC(=O)Nc1ccc(C(=O)c2ccccc2)cc1 [SI26]
activity at 3 µM [3]: 94.9%
activity at 10 µM [4]: 72.7%

Cc1onc(-c2ccccc2)c1C(=O)N(N)S(=O)(=O)c1ccccc1 [SI27]
activity at 3 µM [1]: 106%
activity at 10 µM [2]: 113%

CCN(CC)c1ccc(N(CCC2OCCO2)C(=O)c2c(-c3cccc([N+](=O)[O-])c3)noc2C)cc1 [SI29]
activity at 3 µM [7]: 82.9%
activity at 10 µM [8]: 82.5%

CCN(CC)c1ccc(N(CCOC)C(=O)c2c(-c3cccc([N+](=O)[O-])c3)noc2C)cc1 [SI30]
activity at 3 µM [7]: 74.9%
activity at 10 µM [8]: 86%

Cc1onc(-c2ccccc2)c1NC(=O)CCCCCBr [SI31]
activity at 3 µM [3]: 66.7%
activity at 10 µM [4]: 78.2%

COc1ccc(C(=O)Nc2c(-c3ccccc3)noc2C)cc1 [SI32]
activity at 3 µM [3]: 110%
activity at 10 µM [4]: 96.2%

Cc1onc(-c2ccccc2)c1NC(=O)c1ccc(CN(C)C)cc1 [SI33]
activity at 3 µM [1]: 95.3%
activity at 10 µM [2]: 112%

CCCCCc1ccc(C(=O)Nc2c(-c3ccccc3)noc2C)cc1 [SI34]
activity at 3 µM [3]: 97.8%
activity at 10 µM [4]: 77.6%

CCCCCc1ccc(C(=S)Nc2c(-c3ccccc3)noc2C)cc1 [SI35]
activity at 3 µM [7]: 89.2%
activity at 10 µM [8]: 75.8%

CCN(CCO)c1ccc(N(C)C(=O)c2c(-c3ccccc3)noc2C)cc1 [SI36]
activity at 3 µM [1]: 87%
activity at 10 µM [2]: 117%

Cc1onc(-c2ccccc2)c1C(=S)Nc1ccc(OCc2ccccc2)cc1 [SI37]
activity at 3 µM [1]: 108%
activity at 10 µM [2]: 87.4%

CCN(c1ccc(NC(=S)c2c(-c3ccccc3)noc2C)cc1)C(C)C [SI38]
activity at 3 µM [1]: 72.7%
activity at 10 µM [2]: 112%

Cc1onc(-c2ccccc2)c1C(=O)Nc1ccc2c(c1)C(=O)CC(C)(C)O2 [SI39]
activity at 3 µM [5]: 123%
activity at 10 µM [6]: 106%

Cc1onc(-c2ccccc2)c1CNc1ccc2oc(-c3ccccc3)cc(=O)c2c1 [SI40]
activity at 3 µM [5]: 94.8%
activity at 10 µM [6]: 99.6%

CCN(CC)c1ccc(NCc2ccncc2)cc1 [SI41]
activity at 3 µM [7]: 110%
activity at 10 µM [8]: 100%

Cc1onc(-c2ccccc2)c1N=Cc1ccc(N(CCO)CCO)cc1 [SI42]
activity at 3 µM [3]: 82.9%
activity at 10 µM [4]: 118%

Cc1onc(-c2ccccc2)c1NCc1ccc(N(CCO)CCO)cc1 [SI43]
activity at 3 µM (COS-1, compound 3 µM, luciferase reporter activity, spread in separate STDEV column): 109%
activity at 10 µM (COS-1, compound 10 µM, luciferase reporter activity, spread in separate STDEV column): 99.7%

Cc1onc(-c2ccccc2)c1/N=C/c1ccc(C(C)N(C)C)cc1 (stereo not shown) [SI45]
activity at 3 µM [3]: 88.4%
activity at 10 µM [4]: 98.2%

CN(C)c1ccc(/C=N/c2c(-c3ccccc3)nc3ncccn23)cc1 [SI46]
activity at 3 µM [1]: 98.9%
activity at 10 µM [2]: 102%

CCC(=O)c1ccc(OCc2c(C)noc2-c2ccccc2)cc1 [SI47]
activity at 3 µM [7]: 89.3%
activity at 10 µM [8]: 95.3%

Cc1onc(-c2ccccc2)c1COCc1ccc(OC(F)(F)F)cc1 [SI49]
activity at 3 µM [3]: 92.6%
activity at 10 µM [4]: 82.9%

CCc1noc(C)c1C(=O)Nc1ccc2oc(-c3ccccc3)cc(=O)c2c1 [SI50]
activity at 3 µM [5]: 91.4%
activity at 10 µM [6]: 97.4%

Cc1onc(-c2ccccc2Cl)c1C(=O)Nc1ccc2oc(-c3ccccc3)cc(=O)c2c1 [SI51]
activity at 3 µM [5]: 96.2%
activity at 10 µM [6]: 75.2%

Cc1cc(NC(=O)c2c(-c3cccc([N+](=O)[O-])c3)noc2C)ccc1C(C)C [SI52]
activity at 3 µM [1]: 93.1%
activity at 10 µM [2]: 91%

CCN(CC)c1ccc(NC(=S)c2c(-c3c(Cl)cccc3Cl)noc2C)cc1 [SI53]
activity at 3 µM [1]: 81.2%
activity at 10 µM [2]: 70.1%

CCN(CC)c1ccc(NC(=O)c2c(-c3ccccc3)nnn2CCC2OCCO2)cc1 [SI58]
activity at 3 µM [7]: 78.8%
activity at 10 µM [8]: 65%

CCN(CC)c1ccc(NC(=O)c2c(-c3ccccc3)nnn2Cc2ccccc2)cc1 [SI60]
activity at 3 µM [7]: 97.8%
activity at 10 µM [8]: 72.4%

COC(=O)c1c(-c2ccccc2)nnn1CC1CCCO1 (stereo not shown) [SI61]
activity at 3 µM [7]: 101%
activity at 10 µM [8]: 100%

CCN(CC)c1ccc(NC(=O)c2c(-c3ccccc3)nnn2CC2CCCO2)cc1 (stereo not shown) [SI62]
activity at 3 µM [7]: 88.2%
activity at 10 µM [8]: 72.5%

CCN(CC)c1ccc(NC(=O)c2c(-c3ccccc3)nnn2CC(C)C)cc1 [SI68]
activity at 3 µM [7]: 83.6%
activity at 10 µM [8]: 69.1%

CCN(CC)c1ccc(C(=O)Cn2nnnc2-c2ccccc2)cc1 [SI69]
activity at 3 µM [7]: 96.6%
activity at 10 µM [8]: 87.9%

COc1ccc(NC(=O)c2cnoc2-c2ccccc2)cc1 [SI70]
activity at 3 µM [1]: 109%
activity at 10 µM [2]: 100%

Cc1noc(-c2ccccc2)c1C(=O)Nc1ccc(CN(C)C)cc1 [SI71]
activity at 3 µM [7]: 109%
activity at 10 µM [8]: 105%
